What was measured:
[1] = in vivo; cited from earlier work
[2] = Dissolution profile tests; format: physicochemical

Structure (SMILES) | AUC [1] [μ · h/mL] | Bioavailability [1] | Cmax [1] [ng/mL] | t1/2 [1] [h] | tmax [1] [h] | % dissolved ([2]; t 0 min) [%] | % dissolved ([2]; t 10 min) [%] | % dissolved ([2]; t 60 min) [%]
O=C(O)Cc1ccccc1Nc1c(Cl)cccc1Cl [Diclofenac] | 4.4 ± 0.08 | 50-60% | 100 to 2200 | 1.0 to 2.0 | 1.98 | – | – | –
CC(C)Cc1ccc(C(C)C(=O)O)cc1 (centres unmarked) [Ibuprofen] | 70 | 80% | 20000 | – | 2 | – | – | –
O=C(c1ccccc1)c1ccc2n1CCC2C(=O)O (centres unmarked) [Ketorolac] | 4.81 | 80% | 5420 | 3.0 to 6.0 | 0.33 to 1.0 | – | – | –
Cc1cnc(NC(=O)C2=C(O)c3ccccc3S(=O)(=O)N2C)s1 [Meloxicam] | 28.8 | – | 1620 ± 200 | – | 3.0 to 6.0 | – | – | –
Cc1ncc(CO)c(CO)c1O.Cl [pyridoxine hydrochloride] | – | – | – | – | – | 0.00 | 95.38 | 90.54
